Assay results taken from ChEMBL document CHEMBL4823249, “Discovery of a Pyrimidinedione Derivative as a Potent and Orally Bioavailable Axl Inhibitor” (J Med Chem, 2021).
Calls of active or inactive are those of the source. The calls are words filed in the database; no cut-off is given here.

Legend:
[1] = AUC(0 to infinity) in Sprague-Dawley rat at 3 mg/kg, po measured upto 24 hrs by LC-MS analysis; assay type: ADME, organism-based; design: route oral, dose 3 mg/kg, time <=24; settings: in vivo
[2] = Half life in ICR mouse at 3 mg/kg, po measured upto 24 hrs by LC-MS analysis; assay type: ADME, organism-based; settings: in vivo
[3] = molecular target: Vascular endothelial growth factor receptor 2 (Homo sapiens, UniProt P35968); assay: Inhibition of recombinant human KDR (790 to end residues) using myelin basic protein as substrate incubated for 40 mins by [gamma-33P]-ATP scintillation counting based radiometry assay
[4] = molecular target: Receptor tyrosine-protein kinase erbB-4 (Homo sapiens, UniProt Q15303); assay: Inhibition of recombinant human ERBB4 (706 to 991 residues) using poly(Glu, Tyr) 4:1 as substrate incubated for 40 mins in presence of [gamma-33ATP] by scintillation counting based radiometry assay
[5] = molecular target: Tyrosine-protein kinase ABL1 (Homo sapiens, UniProt P00519); assay: Inhibition of human recombinant ABL (27 to end residues) using EAIYAAPFAKKK as substrate incubated for 40 mins in presence of [gamma33P-ATP] by radiometric scintillation counting analysis
[6] = molecular target: Tyrosine-protein kinase JAK1 (Homo sapiens, UniProt P23458); assay: Inhibition of human JAK1 (866 to end residues) using GEEPLYWSFPAKKK as substrate after 40 mins in presence of [gamma-33ATP] by scintillation counting based radiometry assay
[7] = molecular target: Tyrosine-protein kinase JAK3 (Homo sapiens, UniProt P52333); assay: Inhibition of recombinant human JAK3 (781 to end residues) using GGEEEEYFELVKKKK as substrate measured after 40 mins in presence of [gamm33P]ATP by scintillation counting method
[8] = molecular target: Serine/threonine-protein kinase mTOR (Homo sapiens, UniProt P42345); assay: Inhibition of full length recombinant human mTOR incubated for 40 mins in presence of [gamma-33ATP] by scintillation counting based radiometry assay
[9] = Inhibition of recombinant human PKA using Kemptide as substrate measured after 40 mins in presence of [gamma33P]ATP by scintillation counting based radiometry assay
[10] = molecular target: Cyclin-dependent kinase 1/cyclin B1 (Homo sapiens, UniProt P06493); assay: Inhibition of recombinant full length human CDK1/CyclinB using Histone H1 as substrate incubated for 40 mins in presence of [gamma-33ATP] by scintillation counting based radiometry assay; assay type: protein-complex assay
[11] = molecular target: T1, Tyrosine-protein kinase receptor UFO (Mus musculus) (UniProt Q00993); assay: Inhibition of AXL in mouse BaF3/TEL-AXL cells assessed as reduction in phosphorylation of AXL at 1 to 15 nM after 2 hrs by Western blotting analysis; assay type: cell-based; settings: dose 1-15 nM
T1 sequence (whole entry): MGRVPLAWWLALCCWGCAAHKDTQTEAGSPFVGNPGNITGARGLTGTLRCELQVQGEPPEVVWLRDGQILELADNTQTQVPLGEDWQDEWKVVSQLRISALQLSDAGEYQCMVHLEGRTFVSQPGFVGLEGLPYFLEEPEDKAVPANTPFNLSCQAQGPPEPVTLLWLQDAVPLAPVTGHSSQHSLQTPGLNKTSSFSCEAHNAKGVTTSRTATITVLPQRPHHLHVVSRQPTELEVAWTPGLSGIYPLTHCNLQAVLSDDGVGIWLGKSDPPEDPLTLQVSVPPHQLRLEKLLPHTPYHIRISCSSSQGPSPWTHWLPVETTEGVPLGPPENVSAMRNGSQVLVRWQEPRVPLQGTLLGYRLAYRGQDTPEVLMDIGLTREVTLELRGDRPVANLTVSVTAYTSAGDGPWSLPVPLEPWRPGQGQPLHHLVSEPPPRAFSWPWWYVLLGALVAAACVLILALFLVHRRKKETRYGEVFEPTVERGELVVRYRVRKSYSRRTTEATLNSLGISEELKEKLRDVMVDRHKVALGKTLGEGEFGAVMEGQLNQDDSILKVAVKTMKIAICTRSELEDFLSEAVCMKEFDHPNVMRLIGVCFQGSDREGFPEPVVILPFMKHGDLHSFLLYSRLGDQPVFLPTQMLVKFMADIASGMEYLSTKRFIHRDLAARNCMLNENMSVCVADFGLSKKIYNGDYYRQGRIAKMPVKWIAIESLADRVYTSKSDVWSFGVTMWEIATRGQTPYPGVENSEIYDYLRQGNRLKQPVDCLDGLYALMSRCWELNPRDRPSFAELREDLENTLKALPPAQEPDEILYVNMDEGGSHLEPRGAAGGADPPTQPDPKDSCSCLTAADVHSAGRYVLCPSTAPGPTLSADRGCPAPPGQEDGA

[12] = molecular target: T1, Tyrosine-protein kinase receptor UFO (Mus musculus); assay: Inhibition of AXL in mouse BaF3/TEL-AXL cells assessed as reduction in phosphorylation of AKT at 1 to 15 nM after 2 hrs by Western blotting analysis; assay type: cell-based; settings: dose 1-15 nM
[13] = molecular target: T2, Hepatocyte growth factor receptor (Homo sapiens, UniProt P08581); assay: Inhibition of MET signaling in human MKN45 cells assessed as reduction in phosphorylation of ERK after 2 hrs by Western blotting analysis; assay type: cell-based; settings: MKN-45, dose 10-100 nM
[14] = molecular target: T2, Hepatocyte growth factor receptor; assay: Inhibition of MET signaling in human EBC1 cells assessed as reduction in phosphorylation of AKT after 2 hrs by Western blotting analysis; assay type: cell-based; settings: EBC-1, dose 10-100 nM
MKN-45 = assay: Antiproliferative activity against human MKN-45 cells incubated for 72 hrs by SRB or CCK8 assay; assay type: functional, cell-based; settings: MKN-45, 72 h
HCC78 = assay: Antiproliferative activity against human HCC78 cells incubated for 72 hrs by SRB or CCK8 assay; assay type: functional, cell-based; settings: HCC78, 72 h
NCI-H1975 = assay: Antiproliferative activity against human NCI-H1975 cells incubated for 72 hrs by SRB or CCK8 assay; assay type: functional, cell-based; settings: NCI-H1975, 72 h
HCC827 = assay: Antiproliferative activity against human HCC827 cells incubated for 72 hrs by SRB or CCK8 assay; assay type: functional, cell-based; settings: HCC827, 72 h
KMS-11 = assay: Antiproliferative activity against human KMS-11 cells incubated for 72 hrs by SRB or CCK8 assay; assay type: functional, cell-based; settings: KMS-11, 72 h
RT-112 = assay: Antiproliferative activity against human RT-112 cells incubated for 72 hrs by SRB or CCK8 assay; assay type: functional, cell-based; settings: RT-112, 72 h
HL-60 = assay: Antiproliferative activity against human HL-60 cells incubated for 72 hrs by SRB or CCK8 assay; assay type: functional, cell-based; settings: HL-60, 72 h
HCC4006 = assay: Antiproliferative activity against human HCC4006 cells incubated for 72 hrs by SRB or CCK8 assay; assay type: functional, cell-based; settings: HCC4006, 72 h
BaF3 = assay: Antitumor activity against mouse BaF3/TEL-AXL cells xenografted in BALB/c nude mouse assessed as tumor growth inhibition at 5 mg/kg, po administered once daily for 14 days by caliper method; assay type: functional; settings: 336 h, time 14 day, read-out: TGI
[15] = Toxicity in BALB/c nude mouse assessed as reduction in body weight at 100 mg/kg, po administered once daily for 14 days; assay type: organism-based; settings: in vivo, 336 h, time 14 day

T2 sequence (P08581 whole entry): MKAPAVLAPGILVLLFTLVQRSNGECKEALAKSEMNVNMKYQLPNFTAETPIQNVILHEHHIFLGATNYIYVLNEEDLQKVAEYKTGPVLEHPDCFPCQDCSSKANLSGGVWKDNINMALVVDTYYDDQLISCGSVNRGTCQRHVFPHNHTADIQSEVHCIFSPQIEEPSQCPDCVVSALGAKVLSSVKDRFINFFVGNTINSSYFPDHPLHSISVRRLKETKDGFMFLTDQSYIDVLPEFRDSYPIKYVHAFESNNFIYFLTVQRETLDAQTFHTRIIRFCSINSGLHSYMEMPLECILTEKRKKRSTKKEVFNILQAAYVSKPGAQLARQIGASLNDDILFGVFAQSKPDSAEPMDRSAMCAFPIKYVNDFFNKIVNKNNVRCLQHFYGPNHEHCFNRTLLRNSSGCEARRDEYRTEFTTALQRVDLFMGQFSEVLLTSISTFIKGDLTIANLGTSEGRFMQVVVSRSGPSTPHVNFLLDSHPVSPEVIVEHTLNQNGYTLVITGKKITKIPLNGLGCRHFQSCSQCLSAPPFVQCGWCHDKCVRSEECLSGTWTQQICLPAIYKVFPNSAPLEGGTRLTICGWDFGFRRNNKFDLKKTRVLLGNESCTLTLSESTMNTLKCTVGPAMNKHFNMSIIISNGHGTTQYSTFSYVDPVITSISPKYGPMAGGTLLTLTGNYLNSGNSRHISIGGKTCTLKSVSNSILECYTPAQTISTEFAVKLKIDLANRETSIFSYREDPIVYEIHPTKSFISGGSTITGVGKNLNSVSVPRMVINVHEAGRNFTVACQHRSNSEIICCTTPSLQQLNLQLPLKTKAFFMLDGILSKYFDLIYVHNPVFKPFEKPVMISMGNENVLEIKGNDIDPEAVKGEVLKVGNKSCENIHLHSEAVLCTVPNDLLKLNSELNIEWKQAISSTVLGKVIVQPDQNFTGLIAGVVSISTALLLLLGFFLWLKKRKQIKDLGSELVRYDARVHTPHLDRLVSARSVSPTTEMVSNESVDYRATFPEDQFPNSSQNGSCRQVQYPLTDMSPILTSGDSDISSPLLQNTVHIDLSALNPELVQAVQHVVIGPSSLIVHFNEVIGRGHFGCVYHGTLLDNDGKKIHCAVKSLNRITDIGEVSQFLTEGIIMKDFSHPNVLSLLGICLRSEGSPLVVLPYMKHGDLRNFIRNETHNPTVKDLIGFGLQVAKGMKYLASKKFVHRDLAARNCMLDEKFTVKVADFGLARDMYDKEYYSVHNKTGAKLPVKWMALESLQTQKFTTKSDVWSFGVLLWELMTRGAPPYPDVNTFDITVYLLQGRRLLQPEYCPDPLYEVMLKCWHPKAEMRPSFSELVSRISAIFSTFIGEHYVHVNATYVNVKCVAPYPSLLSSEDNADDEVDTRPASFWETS
Sequence of Tyrosine-protein kinase JAK3 (P52333 whole entry): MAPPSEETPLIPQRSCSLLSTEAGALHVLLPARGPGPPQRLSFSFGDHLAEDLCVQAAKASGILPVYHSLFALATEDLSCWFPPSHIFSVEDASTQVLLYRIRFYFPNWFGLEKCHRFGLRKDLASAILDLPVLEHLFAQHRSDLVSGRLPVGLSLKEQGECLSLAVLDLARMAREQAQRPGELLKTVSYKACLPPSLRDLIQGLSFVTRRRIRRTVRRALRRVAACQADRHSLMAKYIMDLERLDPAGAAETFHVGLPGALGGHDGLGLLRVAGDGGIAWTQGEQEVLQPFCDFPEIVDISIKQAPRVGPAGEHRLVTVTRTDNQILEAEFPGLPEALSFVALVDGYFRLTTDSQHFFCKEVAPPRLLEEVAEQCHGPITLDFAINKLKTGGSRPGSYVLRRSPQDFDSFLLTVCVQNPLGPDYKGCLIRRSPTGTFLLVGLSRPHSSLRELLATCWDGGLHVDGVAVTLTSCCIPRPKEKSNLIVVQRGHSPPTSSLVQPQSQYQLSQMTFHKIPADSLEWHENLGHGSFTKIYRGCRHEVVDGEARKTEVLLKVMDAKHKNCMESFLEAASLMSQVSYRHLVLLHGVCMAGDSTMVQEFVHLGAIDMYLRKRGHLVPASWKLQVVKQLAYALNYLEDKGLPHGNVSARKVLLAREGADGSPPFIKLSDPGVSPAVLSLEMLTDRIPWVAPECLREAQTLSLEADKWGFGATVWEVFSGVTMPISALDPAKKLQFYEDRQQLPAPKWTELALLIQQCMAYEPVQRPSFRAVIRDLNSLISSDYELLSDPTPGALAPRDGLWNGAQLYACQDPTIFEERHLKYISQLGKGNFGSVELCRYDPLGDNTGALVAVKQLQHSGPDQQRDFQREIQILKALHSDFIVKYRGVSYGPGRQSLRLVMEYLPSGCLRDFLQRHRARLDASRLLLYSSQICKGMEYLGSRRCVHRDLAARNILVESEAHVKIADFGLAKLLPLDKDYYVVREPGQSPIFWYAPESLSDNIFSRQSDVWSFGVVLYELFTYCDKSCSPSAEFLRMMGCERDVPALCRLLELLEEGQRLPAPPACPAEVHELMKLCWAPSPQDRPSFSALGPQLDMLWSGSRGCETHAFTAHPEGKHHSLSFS
Sequence of Cyclin-dependent kinase 1/cyclin B1 (P06493 whole entry): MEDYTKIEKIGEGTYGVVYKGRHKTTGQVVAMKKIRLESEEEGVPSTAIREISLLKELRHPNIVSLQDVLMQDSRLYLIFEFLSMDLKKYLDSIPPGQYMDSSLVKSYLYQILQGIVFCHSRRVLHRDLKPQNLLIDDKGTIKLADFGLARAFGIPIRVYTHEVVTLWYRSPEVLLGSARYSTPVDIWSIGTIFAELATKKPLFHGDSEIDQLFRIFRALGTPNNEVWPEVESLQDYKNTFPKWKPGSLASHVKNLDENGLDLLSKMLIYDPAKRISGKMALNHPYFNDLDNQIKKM
Sequence of Cyclin-dependent kinase 1/cyclin B1 (P14635 whole entry, further chain): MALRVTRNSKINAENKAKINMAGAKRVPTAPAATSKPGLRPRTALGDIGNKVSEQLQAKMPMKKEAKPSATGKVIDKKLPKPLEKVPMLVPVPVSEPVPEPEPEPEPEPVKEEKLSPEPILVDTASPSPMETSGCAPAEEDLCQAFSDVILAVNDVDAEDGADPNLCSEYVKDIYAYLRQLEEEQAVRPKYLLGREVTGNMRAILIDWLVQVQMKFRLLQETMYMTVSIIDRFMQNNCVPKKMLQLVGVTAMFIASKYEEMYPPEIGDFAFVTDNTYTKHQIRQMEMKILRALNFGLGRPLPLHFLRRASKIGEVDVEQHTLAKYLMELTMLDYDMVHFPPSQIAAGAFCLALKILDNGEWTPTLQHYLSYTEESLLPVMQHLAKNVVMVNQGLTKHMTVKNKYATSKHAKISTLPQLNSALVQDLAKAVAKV
Sequence of Receptor tyrosine-protein kinase erbB-4 (Q15303 whole entry, the tested form may be a part): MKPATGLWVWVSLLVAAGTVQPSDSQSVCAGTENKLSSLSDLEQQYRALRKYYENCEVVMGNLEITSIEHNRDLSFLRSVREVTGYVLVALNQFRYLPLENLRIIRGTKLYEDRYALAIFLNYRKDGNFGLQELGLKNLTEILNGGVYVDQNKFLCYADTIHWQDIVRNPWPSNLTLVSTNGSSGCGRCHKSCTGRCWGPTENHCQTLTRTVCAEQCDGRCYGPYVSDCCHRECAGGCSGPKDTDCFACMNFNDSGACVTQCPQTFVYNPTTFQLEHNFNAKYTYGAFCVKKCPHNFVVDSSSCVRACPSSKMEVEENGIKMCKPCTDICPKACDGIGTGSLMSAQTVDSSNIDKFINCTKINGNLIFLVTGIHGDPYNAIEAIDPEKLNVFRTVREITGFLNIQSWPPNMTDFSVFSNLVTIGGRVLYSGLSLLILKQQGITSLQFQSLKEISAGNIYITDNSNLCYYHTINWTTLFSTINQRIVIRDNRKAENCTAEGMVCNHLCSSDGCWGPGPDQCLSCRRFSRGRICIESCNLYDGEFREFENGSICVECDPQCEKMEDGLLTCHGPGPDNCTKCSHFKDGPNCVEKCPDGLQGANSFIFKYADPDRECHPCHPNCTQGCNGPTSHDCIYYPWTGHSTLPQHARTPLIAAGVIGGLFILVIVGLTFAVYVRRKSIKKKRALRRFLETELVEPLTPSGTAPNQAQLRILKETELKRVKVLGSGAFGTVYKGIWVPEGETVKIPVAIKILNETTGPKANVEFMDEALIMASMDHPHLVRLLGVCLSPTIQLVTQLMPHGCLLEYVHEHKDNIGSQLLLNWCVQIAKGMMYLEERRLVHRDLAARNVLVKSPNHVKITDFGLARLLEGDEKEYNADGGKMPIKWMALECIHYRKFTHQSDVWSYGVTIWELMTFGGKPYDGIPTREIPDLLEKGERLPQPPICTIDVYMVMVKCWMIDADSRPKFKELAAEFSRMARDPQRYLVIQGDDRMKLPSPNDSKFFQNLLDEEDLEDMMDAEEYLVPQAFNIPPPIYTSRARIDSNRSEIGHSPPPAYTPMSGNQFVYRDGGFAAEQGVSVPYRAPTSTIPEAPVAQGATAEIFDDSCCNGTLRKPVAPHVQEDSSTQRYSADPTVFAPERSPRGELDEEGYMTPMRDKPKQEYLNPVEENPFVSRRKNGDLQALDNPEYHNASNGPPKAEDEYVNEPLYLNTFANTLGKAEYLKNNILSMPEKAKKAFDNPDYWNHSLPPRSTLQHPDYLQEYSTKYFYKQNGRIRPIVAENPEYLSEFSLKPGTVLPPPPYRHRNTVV

AUC(0-inf) [1]: 43900 ng·h/mL
half-life [2]: 5.2 h
IC50 [3]: > 1 µM
IC50 [4]: > 1 µM
IC50 [5]: > 1 µM
IC50 [6]: > 1 µM
IC50 [7]: > 1 µM
IC50 [8]: > 1 µM
IC50 [9]: > 1 µM
IC50 [10]: > 1 µM
inhibition [11]: Active
inhibition [12]: Active
inhibition [13]: Dose-Dependent Effect
inhibition [14]: Dose-Dependent Effect
IC50 (MKN-45): 0.107 µM
IC50 (HCC78): > 10 µM
IC50 (NCI-H1975): > 10 µM
IC50 (HCC827): > 10 µM
IC50 (HL-60): > 10 µM
IC50 (HCC4006): > 10 µM
SMILES: CC(C)n1cc(C(=O)Nc2ccc(Oc3ccnc(NC(=O)C4CC4)c3)c(F)c2)c(=O)n(-c2ccc(F)cc2)c1=O
IC50 (KMS-11): > 10 µM
IC50 (RT-112): > 10 µM
inhibition in vivo at 5 mg/kg (BaF3): 106%
Activity [15]: Non-Toxic
